According to patent US7169785B2, “Methods and compositions of novel triazine compounds” (Reddy US Therapeutics, Inc., priority 2001, dated 2007):

tested on: IL-6; assay: TNF-α-induced IL-6 production determined by IL-6 ELISA in HAEC; assay type: cell-based, human; settings: Compds tested @ 10 uM, HAEC
Procedure: Human aortic endothelial cells (HAEC, Clonetics) were cultured according to manufacturer in growth medium (Clonetics): basal medium containing human epidermal growth factor, hydrocortisone, vascular endothelial growth factor, heparin binding growth factor-B, long R3-insulin-like growth factor-1, ascorbic acid, gentamicin/amphotericin and 5% FBS. These cell were allowed to reach at least 90% confluency before subjected to experimental treatments. Glycated human serum albumin (G-HSA) was from US Biologicals. Tumor necrosis factor α was from R&D Systems.
[…] All treatments, compound-added and controls were carried out in serum free media containing 0.2% albumin. Media from all conditions were collected and used for IL-6 ELISA.
IL-6 ELISA was carried out using human IL-6 DuoSet ELISA development kit as described by manufacturer (R&D Systems). Mouse anti-human Il-6 was used as the capture antibody (2 ug/ml) and biotinylated goat anti-human IL-6 (200 ng/ml) was used as the detection antibody. Culture media were incubated with capture antibody (in 96 well) for 2 h at room temperature. Wells were washed three times with wash buffer (0.05% tween-20 in phosphate buffered saline (PBS) pH 7.4) followed by incubation with detection antibody for 2 h at room temperature. Following three washes wells were incubated with Streptavidin-HRP for 20 min. Color development was read at 450 nm in a Microplate reader.

Point of comparison: `CN1CCC(N(C)c2nc(Nc3ccc4ccccc4c3)nc(NC3CCCCCC3)n2)CC1` [Compound 172, N-Cycloheptyl-N′-methyl-N′-(1-methyl-piperidin-4-yl)-N″-naphthalen-2-yl-[1,3,5]triazine-2,4,6-triamine], “% IL6 production compare to TNF stimulation to IL6 (100%)” value 18%. Against it:
- COc1ccc(Nc2nc(N3CCOCC3)nc(N3CCN(Cc4ccccc4)CC3)n2)cc1 [Compound 173, [4-(4-Benzyl-piperazin-1-yl)-6-morpholin-4-yl-[1,3,5]triazin-2-yl]-(4-methoxy-phenyl)-amine] — higher, 47%
- c1ccc2cc(Nc3nc(NC4CCCCCC4)nc(N4CCOCC4)n3)ccc2c1 [Compound 174, N-Cycloheptyl-6-morpholin-4-yl-N′-naphthalen-2-yl-[1,3,5]triazine-2,4-diamine] — higher, 34%
- COc1ccc(Nc2nc(NC3CCCCCC3)nc(N3CCOCC3)n2)cc1F [Compound 175, N-Cycloheptyl-N′-(3-fluoro-4-methoxy-phenyl)-6-morpholin-4-yl-[1,3,5]triazine-2,4-diamine] — the same, 18%
- c1ccc(Nc2nc(NC3CCCCCC3)nc(N3CCOCC3)n2)cc1 [Compound 176, N-Cycloheptyl-6-morpholin-4-yl-N′-phenyl-[1,3,5]triazine-2,4-diamine] — higher, 33%
- COc1ccc(Nc2nc(NC3CCCCCC3)nc(N(C)Cc3ccccc3)n2)cc1 [Compound 178, N-Benzyl-N′-cycloheptyl-N″-(4-methoxy-phenyl)-N-methyl-[1,3,5]triazine-2,4,6-triamine] — higher, 19%

same assay, conditions: HAEC; class of % of control IL6 production

In the case of `COc1ccc(Nc2nc(NCCCCCO)nc(N(C)C3CCN(C)CC3)n2)cc1Cl` [Compound 108, 5-{4-(3-Chloro-4-methoxy-phenylamino)-6-[methyl-(1-methyl-piperidin-4-yl)-amino]-[1,3,5]triazin-2-ylamino}-pentan-1-ol], the “Inhibition of TNF-induced IL6 production” value is reported as “+++ (between about 25 and about 50% of control IL6 production)”.
With `CCCCN(CCC)c1nc(Nc2ccc(OC)c(Cl)c2)nc(N(C)C2CCN(C)CC2)n1` [Compound 111, N-Butyl-N′-(3-chloro-4-methoxy-phenyl)-N″-methyl-N″-(1-methyl-piperidin-4-yl)-N-propyl-[1,3,5]triazine-2,4,6-triamine] the “Inhibition of TNF-induced IL6 production” value was “+ (between about 75 and 100% of control IL6 production)”.
In the case of `CCCCN(CCC)c1nc(Nc2ccc(OC)c(Cl)c2)nc(N(C)C2CCNCC2)n1` [Compound 112, N^2-Butyl-N^4-(3-chloro-4-methoxy-phenyl)-N^6-methyl-N^6-piperidin-4-yl-N^2-propyl-1,3,5-triazine-2,4,6-triamine], the “Inhibition of TNF-induced IL6 production” value is reported as “+ (between about 75 and 100% of control IL6 production)”.

same assay, conditions: Homo sapiens, 24 h, read-out: % IL6 production compare to TNF stimulation of IL6 (100%), @ 5 uM; HAEC, IL6

Point of comparison: `CCCCN(CCC)c1nc(Nc2ccc(OC)c(Cl)c2)nc(N(C)C2CCN(C)CC2)n1` [Compound 111, N-Butyl-N′-(3-chloro-4-methoxy-phenyl)-N″-methyl-N″-(1-methyl-piperidin-4-yl)-N-propyl-[1,3,5]triazine-2,4,6-triamine], activity at 5 µM 46%. Against it:
- CCCCN(CCC)c1nc(Nc2ccc(OC)c(Cl)c2)nc(N(C)C2CCNCC2)n1 [Compound 112, N^2-Butyl-N^4-(3-chloro-4-methoxy-phenyl)-N^6-methyl-N^6-piperidin-4-yl-N^2-propyl-1,3,5-triazine-2,4,6-triamine] — higher, 90%

same assay, conditions: Homo sapiens, 24 h, read-out: % IL6 production compare to TNF stimulation of IL6 (100%), Compds tested @ 10 uM; HAEC, IL6

Point of comparison: `COc1ccc(Nc2nc(NCCCCCO)nc(N(C)C3CCN(C)CC3)n2)cc1Cl` [Compound 108, 5-{4-(3-Chloro-4-methoxy-phenylamino)-6-[methyl-(1-methyl-piperidin-4-yl)-amino]-[1,3,5]triazin-2-ylamino}-pentan-1-ol], activity at 10 µM 25%. Against it:
- CCCCN(CCC)c1nc(Nc2ccc(OC)c(Cl)c2)nc(N(C)C2CCN(C)CC2)n1 [Compound 111, N-Butyl-N′-(3-chloro-4-methoxy-phenyl)-N″-methyl-N″-(1-methyl-piperidin-4-yl)-N-propyl-[1,3,5]triazine-2,4,6-triamine] — higher, > 90%

same assay, conditions: Homo sapiens, 24 h; Compds tested @ 10 uM; HAEC, IL6; read-out: % IL6 production compare to TNF stimulation of IL6 (100%)

Point of comparison: `CCN1CCCC1CNc1nc(Nc2ccc(OC)c(F)c2)nc(NC2CCC(C)CC2)n1` (stereo not drawn) [Compound 60, N^2-[(1-ethyl-2-pyrrolidinyl)methyl]-N^4-(3-fluoro-4-methoxyphenyl)-N^6-(4-methylcyclohexyl)-1,3,5-triazine-2,4,6-triamine], activity at 10 µM 1%. Against it:
- CCN1CCCC1CNc1nc(Nc2ccc(N3CCN(C)CC3)cc2)nc(NC2CCCCCC2)n1 (stereo not drawn) [Compound 28, N^2-cycloheptyl-N^4-[(1-ethyl-2-pyrrolidinyl)methyl]-N^6-[4-(4-methyl-1-piperazinyl)phenyl]-1,3,5-triazine-2,4,6-triamine] — higher, 23%
- CCNc1nc(NCC2CCCN2CC)nc(Nc2ccc(OC)c(F)c2)n1 (stereo not drawn) [Compound 51, N^2-ethyl-N^4-[(1-ethyl-2-pyrrolidinyl)methyl]-N^6-(3-fluoro-4-methoxyphenyl)-1,3,5-triazine-2,4,6-triamine] — the same, 1%
- CCN1CCCC1CNc1nc(Nc2ccc(OC)c(F)c2)nc(NC2CCCCC2)n1 (stereo not drawn) [Compound 55, N^2-cyclohexyl-N^4-[(1-ethyl-2-pyrrolidinyl)methyl]-N^6-(3-fluoro-4-methoxyphenyl)-1,3,5-triazine-2,4,6-triamine] — the same, 1%
- CCN1CCCC1CNc1nc(Nc2ccc(OC)c(F)c2)nc(NC2CCCC2)n1 (stereo not drawn) [Compound 56, N^2-cyclopentyl-N^4-[(1-ethyl-2-pyrrolidinyl)methyl]-N^6-(3-fluoro-4-methoxyphenyl)-1,3,5-triazine-2,4,6-triamine] — the same, 1%
- CCN1CCCC1CNc1nc(Nc2ccc(OC)c(F)c2)nc(N2CCN(C(C)=O)CC2)n1 (stereo not drawn) [Compound 63, 6-(4-acetyl-1-piperazinyl)-N^2-[(1-ethyl-2-pyrrolidinyl)methyl]-N^4-(3-fluoro-4-methoxyphenyl)-1,3,5-triazine-2,4-diamine] — higher, 26%
- CCOC(=O)N1CCN(c2nc(NCC3CCCN3CC)nc(Nc3ccc(OC)c(F)c3)n2)CC1 (stereo not drawn) [Compound 64, Ethyl 4-{4-{[(1-ethyl-2-pyrrolidinyl)methyl]amino}-N^6-[(3-fluoro-4-methoxyphenyl)amino]-1,3,5-triazin-2-yl}-1-piperazinecarboxylate] — higher, 23%
- COc1ccc(Nc2nc(NC3CCCCCC3)nc(NC(C)(C)C)n2)cc1F [Compound 77, N^2-(tert-butyl)-N^4-cycloheptyl-N^6-(3-fluoro-4-methoxyphenyl)-1,3,5-triazine-2,4,6-triamine] — higher, 21%
- COc1ccc(Nc2nc(NCc3ccccc3)nc(NC3CCCCCC3)n2)cc1F [Compound 78, N^2-benzyl-N^4-cycloheptyl-N^6-(3-fluoro-4-methoxyphenyl)-1,3,5-triazine-2,4,6-triamine] — higher, 47%
- COc1ccc(Nc2nc(NC3CCCCCC3)nc(N3CCCCCC3)n2)cc1F [Compound 83, N^2-cycloheptyl-N^4-(3-fluoro-4-methoxyphenyl)-6-hexahydro-1H-azepin-1-yl-1,3,5-triazine-2,4-diamine] — higher, 18%
- COc1ccc(Nc2nc(NC3CCCCCC3)nc(N3CCCC4CCCCC43)n2)cc1F (stereo not drawn) [Compound 84, N^2-cycloheptyl-N^4-(3-fluoro-4-methoxyphenyl)-6-octahydro-1(2H)-quinolinyl-1,3,5-triazine-2,4-diamine] — higher, 33%
- COC[C@@H]1CCCN1c1nc(Nc2ccc(OC)c(F)c2)nc(NC2CCCCCC2)n1 [Compound 86, N^2-cycloheptyl-N^4-(3-fluoro-4-methoxyphenyl)-6-[(2S)-2-(methoxymethyl)-1-pyrrolidinyl]-1,3,5-triazine-2,4-diamine] — higher, 19%
- COc1ccc(Nc2nc(NC3CCCCCC3)nc(N3CCN(C(C)=O)CC3)n2)cc1F [Compound 88, 6-(4-acetyl-1-piperazinyl)-N^2-cycloheptyl-N^4-(3-fluoro-4-methoxyphenyl)-1,3,5-triazine-2,4-diamine] — higher, 19%
- COc1ccc(Nc2nc(NCc3ccco3)nc(NC3CCCCCC3)n2)cc1F [Compound 91, N^2-cycloheptyl-N^4-(3-fluoro-4-methoxyphenyl)-N^6-(2-furanylmethyl)-1,3,5-triazine-2,4,6-triamine] — higher, 28%
- COc1ccc(Nc2nc(NCCN3CCCCC3)nc(NC3CCCCCC3)n2)cc1F [Compound 96, N^2-cycloheptyl-N^4-(3-fluoro-4-methoxyphenyl)-N^6-[2-(1-piperidinyl)ethyl]-1,3,5-triazine-2,4,6-triamine] — higher, 6%
- CCN1CCC[C@H]1CNc1nc(NCC2CCCCC2)nc(Nc2ccc(OC)c(F)c2)n1 [Compound 141, N^2-cyclohexylmethyl-N^4-((S)-1-ethyl-pyrrolidin-2-ylmethyl)-N^6-(3-fluoro-4-methoxyphenyl)-1,3,5-triazine-2,4,6-triamine] — higher, 23.4%
- CCN1CCC[C@@H]1CNc1nc(NCC2CCCCC2)nc(Nc2ccc(OC)c(F)c2)n1 [Compound 142, N^2-cyclohexylmethyl-N^4-((R)-1-ethyl-pyrrolidin-2-ylmethyl)-N^6-(3-fluoro-4-methoxyphenyl)-1,3,5-triazine-2,4,6-triamine] — higher, 21.6%
- CCN1CCC[C@H]1CNc1nc(NC2CCCCCC2)nc(N(CC#N)c2ccccc2)n1 [Compound 143, ({4-cycloheptylamino-6-[((S)-1-ethyl-pyrrolidin-2-ylmethyl)-amino]-1,3,5-triazin-2-yl}-phenyl-amino)-acetonitrile] — higher, 18.9%
- COc1ccc(Nc2nc(NC3CC3)nc(NC3CC3)n2)cc1F [Compound 157, N,N′-dicyclopropyl-N″-(3-fluoro-4-methoxy-phenyl)-1,3,5-triazine-2,4,6-triamine] — higher, 60.5%

same assay, conditions: Homo sapiens; HAEC, IL6; unit inferred; read-out: IC50 (TNF stimulation of IL6)

`CCN1CCCC1CNc1nc(Nc2ccc(OC)c(Cl)c2)nc(NC2CCCCCC2)n1` (stereo not drawn) [Compound 48, N^2-(3-chloro-4-methoxyphenyl)-N^4-cycloheptyl-N^6-[(1-ethyl-2-pyrrolidinyl)methyl]-1,3,5-triazine-2,4,6-triamine] was tested, and the IC50 was 4.3 µM.
